Data: US20240180898A1, “USE OF AMINOTHIAZOLE DERIVATIVE IN TREATMENT OF IMMUNE INFLAMMATION” (INNAMUNE PHARMACEUTICAL CO. LTD., priority 2021, published 2024)

Columns and labels:
[1] = test system: Balb/c mouse psoriasis model; assay: mouse psoriasis model (imiquimod cream); assay type: in vivo
Description: Preparation and grouping of mouse […] model:
Model preparation: Male Balb/c mice aged 6-8 weeks were shaved on the back skin and coated with 5% imiquimod (IMQ) cream once a day for 7 consecutive days.
The experiment was divided into three groups, namely: • Psoriasis control group (without any treatment, psoriasis model group), TJ-M2010-5 systemic medication group (intraperitoneal injection), and TJ-M2010-5 local medication group (ointment group). The specific handling method is as follows: • TJ-M2010-5 systemic medication group: A Balb/c mouse psoriasis model was taken and TJ- M2010-5 was injected intraperitoneally at a dose of 50 mg/kg, once a day, for 2 consecutive weeks. • TJ-M2010-5 local medication group: A Balb/c mouse psoriasis model was taken, and 1% TJ-M2010-5 ointment was applied on the skin, once a day, for 2 consecutive weeks.

APP/PS1 transgenic mice = assay: Alzheimer's disease model, APP/PS1 transgenic mice; assay type: in vivo, mouse
Description: Preparation and grouping of Alzheimer's disease mouse models:
The experiment is divided into three groups, namely:
Drug group (APP/PS1+INNA1605 group): APP/PSI transgenic mice were given INNA1605 at a dose of 50 mg/Kg/day (twice a day, 25 mg/Kg each time, intraperitoneal injection once, gavage once);
Model group (APP/PSI group): APP/PSI transgenic mice were given an equal dose of solvent (ddH2O);
Control group: C57BL/6 mice were given an equal dose of solvent (ddH2O).
At 9 months of age, Morris water maze test was conducted to evaluate the spatial learning and memory abilities of APP/PSI mice. After the behavioral experiment was completed, pentobarbital sodium (100 mg/kg) was injected into the abdominal cavity for deep anesthesia. After fully exposing the heart and aorta through thoracotomy, a 20 ml syringe was inserted into the aorta with an infusion needle from the apex of the heart. The needle was fixed and the right atrium was cut open. 30 ml of physiological saline at 4° C. was perfused through the aorta until most of the blood flowed out. The hippocampus and cortical tissue were carefully and quickly separated and stored at −80° C.for subsequent biochemical analysis. The remaining mice were first perfused with 30 ml of 4° C. physiological saline, followed by 30 ml of pre-cooled 4% paraformaldehyde. Then, the whole brain was removed and fixed with 4% paraformaldehyde for another 48 hours. After dehydration, transparency, paraffin embedding, and sectioning, immunohistochemical analysis was performed.

[2] = test system: macrophages derived from mouse bone marrow; assay: LPS-induced secretion of inflammatory factors from macrophages, ELISA of supernatant; assay type: cell-based; details: 30 umol/L 2 hours before LPS 500 ng/ml for 24 hours; FIG. 2
Description: macrophage grouping (in vitro):
Cultivate macrophages derived from mouse bone marrow in vitro.
The experiment was divided into 8 groups, namely: • Control group (untreated mouse bone marrow-derived macrophages), • LPS group (500 ng/ml LPS stimulated macrophages for 24 hours), • LPS+TJ-2 group (2 hours before LPS stimulation, administer 30 umol/L TJ-2 drug stimulation), • LPS+TJ-5 group (2 hours before LPS stimulation, administer 30 umol/L TJ-5 drug stimulation), • LPS+TJ-8 group (2 hours before LPS stimulation, administer 30 umol/L TJ-8 drug stimulation), • LPS+TJ-9 group (2 hours before LPS stimulation, administer 30 umol/L TJ-9 drug stimulation), • LPS+TJ-11 group (2 hours before LPS stimulation, administer 30 umol/L TJ-11 drug stimulation), • and LPS+TJ-12 group (2 hours before LPS stimulation, administer 30 umol/L TJ-12 drug stimulation).
After 24 hours of LPS stimulation, the cell culture supernatant was removed and ELISA was performed to detect the concentration of various inflammatory factors in the supernatant.

high-fat diet obese mice = assay: high-fat diet obesity and fatty liver model; assay type: in vivo, mouse
Description: Feed B6 mice with a high-fat diet (HFD) to create an obesity model. Divide the animals into three groups: normal diet group, high-fat diet group, and high-fat diet group with INNA1605 (TJ-M2010-5) added at the same time. Conduct three control groups to measure body weight, inguinal and epididymal fat size, liver size, and examine the liver and various adipose tissues of each group.

[3] = preclinical safety assessment, intravenous injection; assay type: in vivo
Description: Direct intravenous injection of 30 mg/kg or more will cause elevated liver enzyme toxicity, and it has no toxic effect at 10 mg/kg.

skin wound = assay: full-thickness dorsal skin wound model; assay type: in vivo, mouse
Description: The mice were anesthetized with isoflurane, and 1.5×0.5 cm full-thickness defects were created on their dorsal skin. Animals were divided into three groups: Sham group, Vehicle group and TJ-5 group. After 1 week, mice were sacrificed and wound tissue was harvested for analysis.

IRI model of mouse liver = assay: hepatic IRI model, western blotting of liver protein; details: in vivo
Description: The IRI model of mouse liver was established. Animals were divided into three groups: Sham group, IRI group and IRI+TJ-5 group. Protein extracted from mouse liver was detected.

allergic rhinitis model = assay: OVA allergic rhinitis (AR) model; assay type: in vivo, mouse
Description: To establish a model of AR, mice were injected intraperitoneally with 25 μg ovalbumin (OVA) and 2 mg aluminum hydroxide on days 0, 7, and 14 to promote primary sensitization. One week after the primary sensitization, the secondary immunization was built. Mice were intranasally challenged with 3% OVA daily from 21 to 35 days. Animals were divided into three groups: Sham group, AR group and AR+TJ-5 group. After 35 days of OVA administration, the number of mice rubbing and sneezing within 10 min was recorded. Nasal lavage fluid was collected 12 h after OVA treatment under anesthesia.

[4] = immunohistochemistry, vs model group

SMILES: O=C(CCN1CCN(Cc2ccccc2)CC1)Nc1nc(-c2ccccc2)cs1 [INNA1605, 3-(4-benzylpiperazine-1-yl)-N-(4-phenylthiazole-2-yl) propionamide]
- therapeutic effect, local medication ([1]; 1% ointment on the skin once a day, 2 weeks): excellent therapeutic effects, with a significant improvement after 7 days and a cure effect achieved after 14 days
- infiltration and proliferation of mast cells ([1]; H&E and C-kit (CD117) staining): inhibits the infiltration and proliferation of mast cells
- abnormally thickened stratum corneum ([1]; after treatment): can basically restore normal tissue structure after treatment
- inflammatory cells in the skin ([1]; both treatments (systemic and local)): significantly reduce inflammatory cells in the skin
- imbalance of spleen T cells and their subsets ([1]; flow cytometry): correct the imbalance of spleen T cells and their subsets
- therapeutic effect, systemic medication ([1]; intraperitoneal 50 mg/kg once a day, 2 weeks): excellent therapeutic effects, with a significant improvement after 7 days and a cure effect achieved after 14 days
- excessive keratinization and proliferation of skin keratinocytes ([1]; mouse, in vivo): inhibit excessive keratinization and proliferation of skin keratinocytes
- expression of CD80 ([1]; mouse, in vivo): significantly reduces the expression of CD80
- expression of intradermal lymphokines (IL-1beta, IL-6, IL-17a, TNF-alpha, MyD88 mRNA, Cxcl2 mRNA) ([1]; mouse, in vivo): inhibits the expression of intradermal lymphokines
- skin thickness ([1]; mouse, in vivo): significant thinning of skin thickness
- splenomegaly ([1]; mouse, in vivo): can improve splenomegaly
- MAPK signaling pathway ([1]; psoriasis model skin): inhibits the MAPK signaling pathway
- synthesis and secretion of inflammatory factors ([1]; skin): inhibiting the synthesis and secretion of inflammatory factors
- immune cell infiltration and activation (macrophages, neutrophils, mast cells) ([1]; skin tissue): a reduction in immune cell infiltration and activation
- memory (Morris water maze) (APP/PS1 transgenic mice; 50 mg/Kg/day, 9 months of age): better memory than APP/PS1 transgenic mice treated with only ddH2O
- Iba-1 positive microglia (whole brain, cortex, hippocampus) (APP/PS1 transgenic mice; [4]): significantly reduced compared to the model group
- brain Aβ deposition (whole brain, cortex, hippocampus) (APP/PS1 transgenic mice; [4]): significantly less
- inhibitory effect on inflammatory factors compared among the compounds [2]: have the same inhibitory effect on inflammatory factors
- secretion of various inflammatory factors in macrophages (IL-1β, Il-6, TNF-α, IL-18, IL-17) [2]: can inhibit the secretion of various inflammatory factors in macrophages
- adipose tissue, liver, and body weight (high-fat diet obese mice; B6 mice, added with high-fat diet, FIG. 37): significantly smaller than those of the obese group and close to those of normal mice
- weight of obese mice fed with high-fat diet (high-fat diet obese mice; FIG. 25): significantly reduced the weight of high-fat diet obese mice
- lipid droplets in the adipose tissue and liver (high-fat diet obese mice; pathological examination, FIG. 38): significantly smaller than those of the obese group, and were similar to normal mice
- dose causing elevated liver enzyme toxicity ([3]; direct intravenous injection): ≥ 30 mg/kg
- dose with no toxic effect ([3]; direct intravenous injection): 10 mg/kg
- toxicity to the body ([3]; preclinical trial results): low toxicity to the body
- skin scar formation (skin wound; FIG. 42): prevents skin scar formation
- levels of IL-1β, IL-6, TNF-α, G-CSF, Col I, and α-SMA mRNAs in wound tissue (skin wound; after 1 week, vs untreated): significantly lower
- wound area (skin wound; vs vehicle): significant decrease in wound area compared to the vehicle
- GSDMD cleavage in liver (IRI model of mouse liver): effectively inhibited GSDMD cleavage
- NLRP3, cleavage of caspase-1 (upregulated) and pro-caspase-1 (downregulated) following IRI (IRI model of mouse liver): this trend was reversed
- cleavage of caspase-11 (IRI model of mouse liver): effectively inhibited cleavage of caspase-11
- levels of IL-4, IL-1β, IL-18 and TNF-α in nasal mucosa (allergic rhinitis model; mouse, in vivo): decreased
- sneezing and nasal rubbing (allergic rhinitis model; within 10 min after 35 days of OVA): relieved these symptoms
